Experimental data from US7351711B2, “Tricyclic indanyls as integrin inhibitors” (Janssen Pharmaceutical, N.V., priority 2003, dated 2008).
Like-named read-outs stand apart in the source and are kept apart here.

Assays:
human purified αVβ5 = target: T1, human purified αVβ5 (Homo sapiens, UniProt P06756+P18084); assay: In vitro solid phase purified αvβ5 binding assay (vitronectin/αVβ5); conditions: inhibition of vitronectin binding to immobilized αVβ5; read-out: Antagonist IC50 Activity αVβ5
T1 construct: purchased Chemicon International, Inc
T1 sequence (P06756 31-889 limits assumed): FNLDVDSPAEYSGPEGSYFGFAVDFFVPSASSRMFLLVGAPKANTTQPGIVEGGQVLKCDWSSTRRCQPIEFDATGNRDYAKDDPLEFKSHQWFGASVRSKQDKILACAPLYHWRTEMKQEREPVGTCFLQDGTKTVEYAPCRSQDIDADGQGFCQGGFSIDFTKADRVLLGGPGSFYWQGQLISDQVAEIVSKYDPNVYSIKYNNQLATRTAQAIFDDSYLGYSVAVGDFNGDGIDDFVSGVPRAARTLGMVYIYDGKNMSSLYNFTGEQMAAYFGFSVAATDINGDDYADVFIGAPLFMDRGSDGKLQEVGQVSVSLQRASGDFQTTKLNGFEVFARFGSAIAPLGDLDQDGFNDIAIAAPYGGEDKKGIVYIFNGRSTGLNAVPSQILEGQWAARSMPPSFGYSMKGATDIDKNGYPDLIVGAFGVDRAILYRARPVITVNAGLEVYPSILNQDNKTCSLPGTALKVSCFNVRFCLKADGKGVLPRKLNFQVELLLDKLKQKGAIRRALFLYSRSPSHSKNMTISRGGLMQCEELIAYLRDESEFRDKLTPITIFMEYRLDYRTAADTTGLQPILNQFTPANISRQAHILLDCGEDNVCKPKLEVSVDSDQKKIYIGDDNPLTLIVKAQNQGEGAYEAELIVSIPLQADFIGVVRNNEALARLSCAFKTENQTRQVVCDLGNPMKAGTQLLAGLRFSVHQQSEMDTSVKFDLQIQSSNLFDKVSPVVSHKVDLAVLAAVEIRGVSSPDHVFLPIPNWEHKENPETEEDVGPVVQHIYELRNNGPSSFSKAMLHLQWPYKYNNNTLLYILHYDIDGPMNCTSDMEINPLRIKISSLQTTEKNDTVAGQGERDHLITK
T1 sequence (P06756 891-1048 partner limits assumed): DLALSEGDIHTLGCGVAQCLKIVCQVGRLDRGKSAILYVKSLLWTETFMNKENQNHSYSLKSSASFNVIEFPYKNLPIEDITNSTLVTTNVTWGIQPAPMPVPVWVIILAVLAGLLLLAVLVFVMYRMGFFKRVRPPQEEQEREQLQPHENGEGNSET
T1 sequence (P18084 24-799): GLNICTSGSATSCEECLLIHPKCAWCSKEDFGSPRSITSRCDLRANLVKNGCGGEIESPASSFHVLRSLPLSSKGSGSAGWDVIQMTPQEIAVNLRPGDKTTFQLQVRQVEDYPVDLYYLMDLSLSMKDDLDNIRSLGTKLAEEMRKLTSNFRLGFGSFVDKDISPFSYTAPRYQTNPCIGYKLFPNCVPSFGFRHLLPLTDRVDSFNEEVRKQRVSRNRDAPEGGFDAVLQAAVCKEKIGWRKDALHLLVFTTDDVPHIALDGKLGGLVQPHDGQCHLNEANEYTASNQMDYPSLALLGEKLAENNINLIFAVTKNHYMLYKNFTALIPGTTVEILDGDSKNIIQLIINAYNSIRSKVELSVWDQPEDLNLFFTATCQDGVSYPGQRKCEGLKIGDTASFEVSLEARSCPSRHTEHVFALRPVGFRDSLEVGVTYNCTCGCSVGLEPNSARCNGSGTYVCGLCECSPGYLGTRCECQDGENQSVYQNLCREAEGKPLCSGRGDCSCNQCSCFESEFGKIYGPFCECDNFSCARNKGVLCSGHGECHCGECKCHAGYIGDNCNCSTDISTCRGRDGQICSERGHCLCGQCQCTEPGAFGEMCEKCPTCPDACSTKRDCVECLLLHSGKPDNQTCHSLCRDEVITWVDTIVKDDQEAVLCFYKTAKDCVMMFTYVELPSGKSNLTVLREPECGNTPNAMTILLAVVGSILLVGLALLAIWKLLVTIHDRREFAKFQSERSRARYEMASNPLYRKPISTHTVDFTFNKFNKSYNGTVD
Description: (§1) The vitronectin/αvβ3 binding assay methods were derived from Mehta et al. (Biochem J,. 1998, 330, 861). Human αvβ3 (Chemicon International Inc., Temecula, Calif.), at a concentration of 1 μg/ml dissolved in Tris buffer (20 mM Tris, 1 mM CaCl2, 1 mM MgCl2, 10 μM MnCl2, 150 mM NaCl), was immobilized on Immulon 96 well plates (Dynex Technologies, Chantilly, Va.) overnight at 4° C. Plates were washed and treated with blocking buffer (3% BSA in Tris buffer) for 2 h at 37° C. Plates were then rinsed 2 times with assay buffer comprised of Tris buffer. Synthesized compounds were added to wells in duplicate immediately prior to the addition of 2 nM vitronectin (Sigma, St. Louis, Mo.). Following a 3 hour incubation at 37° C., plates were washed 5 times in assay buffer. An anti-human vitronectin IgG rabbit polyclonal antibody (Calbiochem, San Diego, Calif.) was added (1:2000) and plates were incubated for 1 hour at room temperature. VectaStain ABC peroxidase kit reagents (Vector Laboratories, Burlingame, Calif.) employing a biotin labeled anti-rabbit IgG, were utilized for detection of bound antibody. Plates were read at 490 nm on a Molecular Devices (Sunnyvale, Calif.) microplate reader.
In Vitro Solid Phase Purified αvβ5 Binding Assay
The vitronectin/αVβ5 binding assay method was performed in the same manner as the vitronectin/αVβ3 binding assay of Example 2, with the difference that 1 μg/mL of human purified αVβ5 (Chemicon International, Inc.) was immobilized onto Immulon 96 well plates (Dynex Technologies) instead of αVβ3. All other aspects of the assay including buffers, reagents and incubation times remain unchanged.

Human αvβ3 = target: T2, Human αvβ3 (Homo sapiens, UniProt P05106+P06756); assay: In vitro solid phase purified αvβ3 binding assay (vitronectin/αvβ3); conditions: for IC50: read-out: Antagonist IC50 Activity αVβ3
T2 construct: purchased Chemicon International Inc., Temecula, Calif
T2 sequence (P06756 31-889 limits assumed): as the sequence (P06756 31-889 limits assumed) above
T2 sequence (P06756 891-1048 partner limits assumed): as the sequence (P06756 891-1048 partner limits assumed) above
T2 sequence (P05106 27-788): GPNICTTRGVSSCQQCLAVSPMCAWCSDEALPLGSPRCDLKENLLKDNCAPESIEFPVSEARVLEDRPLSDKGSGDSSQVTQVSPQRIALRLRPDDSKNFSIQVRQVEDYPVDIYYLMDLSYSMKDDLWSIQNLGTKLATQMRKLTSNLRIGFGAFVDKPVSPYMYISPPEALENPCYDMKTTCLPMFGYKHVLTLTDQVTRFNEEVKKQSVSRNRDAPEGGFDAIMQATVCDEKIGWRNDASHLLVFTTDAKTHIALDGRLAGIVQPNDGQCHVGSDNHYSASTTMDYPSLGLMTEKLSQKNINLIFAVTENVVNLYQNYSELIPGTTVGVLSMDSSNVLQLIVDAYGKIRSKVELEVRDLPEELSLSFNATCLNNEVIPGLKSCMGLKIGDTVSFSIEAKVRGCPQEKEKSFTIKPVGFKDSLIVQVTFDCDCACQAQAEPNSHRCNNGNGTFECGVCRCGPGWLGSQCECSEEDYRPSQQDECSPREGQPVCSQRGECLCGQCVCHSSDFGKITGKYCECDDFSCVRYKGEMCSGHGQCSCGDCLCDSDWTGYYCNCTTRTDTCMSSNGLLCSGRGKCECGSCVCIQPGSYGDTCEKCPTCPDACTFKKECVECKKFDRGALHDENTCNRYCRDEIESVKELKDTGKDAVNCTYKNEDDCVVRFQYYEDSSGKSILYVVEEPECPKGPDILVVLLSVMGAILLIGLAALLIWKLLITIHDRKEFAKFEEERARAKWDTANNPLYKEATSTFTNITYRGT
Description: In Vitro Solid Phase Purified αvβ3 Binding Assay
as §1

| Structure (SMILES) | IC50 (human purified αVβ5) | IC50 (Human αvβ3) | Antagonist activity αVβ3, % @ 50 μM (Human αvβ3) | IC50 (Human αvβ3; inhibition of 2 nM vitronectin binding to immobilized αvβ3) |
| --- | --- | --- | --- | --- |
| O=C(O)C[C@H]1c2ccccc2[C@@H]2CN(C(=O)Cc3cccc(NC4=NCCCN4)c3)CC[C@H]12 (single isomer, unassigned) [Cpd 2, (3-{2-[3-(1,4,5,6,-Tetrahydro-pyrimidin-2-ylamino)-phenyl]-acetyl}-2,3,4,4a,9,9a-hexahydro-1H-3-aza-fluoren-9-yl)-acetic acid] | 217 ± 5 nM | 126 ± 40 nM |  |  |
| O=C(O)CC1c2ccccc2C2CN(C(=O)CCCc3ccc4c(n3)NCCC4)CC12 (racemic) [Cpd 15] | 538 nM | 411 nM |  |  |
| O=C(O)CC1c2ccccc2C2CCN(C(=O)CCc3ccc4c(n3)NCCC4)CC21 (racemic) [Cpd 11] |  | > 1 nM |  |  |
| O=C(O)CC1c2ccccc2C2CCN(C(=O)CCCc3ccc4c(n3)NCCC4)CC21 (stereo not drawn) [Cpd 9, [2-(4-5,6,7,8-Tetrahydro-[1,8]naphthyridine-2-yl-butyryl)-2,3,4,4a,9,9a-hexahydro-1H-indeno[2,1-c]pyridin-9-yl]-acetic acid] |  |  | 41% @ |  |
| O=C(O)CC1c2ccccc2C2CN(C(=O)CCc3ccc4c(n3)NCCC4)CCC12 (racemic) [Cpd 4] | 189 nM | 87 nM |  |  |
| O=C(O)C[C@H]1c2ccccc2[C@@H]2CN(C(=O)CCc3ccc4c(n3)NCCC4)C[C@H]12 [Cpd 14, [2-(3-5,6,7,8-Tetrahydro-[1,8]naphthyrin-2-yl-propionyl)-1,2,3,3a,8,8a-hexahydro-2-aza-cyclopenta[a]inden-8-yl]-acetic acid] | 5.8 ± 1.2 nM | 17 ± 3 nM |  |  |
| O=C(O)CC1c2ccccc2C2CN(C(=O)CCc3ccc4c(n3)NCCC4)CC12 (single isomer, unassigned) [Cpd 13, [2-(3-5,6,7,8-Tetrahydro-[1,8]naphthyrin-2-yl-propionyl)-1,2,3,3a,8,8a-hexahydro-2-aza-cyclopenta[a]inden-8-yl]-acetic acid] | 260 ± 60 nM | 290 ± 90 nM |  |  |
| O=C(O)C[C@@H]1c2ccccc2[C@@H]2CN(C(=O)Cc3cccc(NC4=NCCCN4)c3)CC[C@H]12 (single isomer, unassigned) [Cpd 1, (3-{2-[3-(1,4,5,6,-Tetrahydro-pyrimidin-2-ylamino)-phenyl]-acetyl}-2,3,4,4a,9,9a-hexahydro-1H-3-aza-fluoren-9-yl)-acetic acid] | 1020 ± 180 nM | 66 ± 6 nM |  |  |
| O=C(O)CC1c2ccccc2C2CN(C(=O)CCCNc3ccccn3)CCC12 (stereo not drawn) [Cpd 7, {3-[4-(Pyridin-2-ylamino)-butyryl]-2,3,4,4a,9,9a-hexahydro-1H-3-aza-fluoren-9-yl}-acetic acid] |  |  |  | > 1 nM |
| O=C(O)CC1c2ccccc2C2CN(C(=O)CCCNc3ccccn3)CCC12 (stereo not drawn) [Cpd 6, {3-[4-(Pyridin-2-ylamino)-butyryl]-2,3,4,4a,9,9a-hexahydro-1H-3-aza-fluoren-9-yl}-acetic acid] |  | > 1 nM |  |  |
| O=C(O)CC1c2ccccc2C2CN(C(=O)CCc3ccc4c(n3)NCCC4)CC12 (racemic) [Cpd 12] | 15 ± 2 nM | 26 ± 8 nM |  |  |
| O=C(O)CC1c2ccccc2C2CCN(C(=O)CCCc3ccc4c(n3)NCCC4)CC21 (stereo not drawn) [Cpd 10, [2-(4-5,6,7,8-Tetrahydro-[1,8]naphthyridine-2-yl-butyryl)-2,3,4,4a,9,9a-hexahydro-1H-indeno[2,1-c]pyridin-9-yl]-acetic acid] |  |  | 51% @ 50 μM |  |
| O=C(O)CC1c2ccccc2C2CN(C(=O)CCCc3ccc4c(n3)NCCC4)CCC12 (racemic) [Cpd 3] | 230 ± 40 nM | 85 ± 8 nM |  |  |
